Assay [1] addresses T1, specific ANP receptor sites on BASM or BAE cells (Bos taurus, UniProt P10730).
T1 construct: specific receptor sites on BASM or BAE cells; endogenous in cells; host or cells: cultured BASM and BAE cells
T1 sequence (P10730 42-537): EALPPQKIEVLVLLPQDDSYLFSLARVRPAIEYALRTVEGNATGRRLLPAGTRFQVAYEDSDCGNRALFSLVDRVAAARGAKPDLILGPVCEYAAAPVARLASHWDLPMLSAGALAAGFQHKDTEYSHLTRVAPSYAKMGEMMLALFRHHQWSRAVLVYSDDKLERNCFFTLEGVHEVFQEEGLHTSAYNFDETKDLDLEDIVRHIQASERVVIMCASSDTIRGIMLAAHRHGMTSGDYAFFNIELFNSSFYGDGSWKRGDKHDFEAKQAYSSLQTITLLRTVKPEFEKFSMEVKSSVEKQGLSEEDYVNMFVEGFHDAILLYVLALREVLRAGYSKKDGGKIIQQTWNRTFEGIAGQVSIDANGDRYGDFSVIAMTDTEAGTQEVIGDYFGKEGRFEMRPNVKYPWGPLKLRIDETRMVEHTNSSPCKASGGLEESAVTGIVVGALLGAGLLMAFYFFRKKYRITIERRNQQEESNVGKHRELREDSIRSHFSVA
The experiment in a line: Competitive displacement receptor binding of (125I)-rANP(126-150) on cultured cells. Also noted: species or system bovine. The conditions noted are these: for prevention of (125I)-rANP(126-150) binding to BASM cell-associated receptors (FIG. 2): increasing concentrations of unlabeled peptide, BASM cells; for Ki(app): concentration of unlabeled peptide displacing 50% of maximal binding of 0.5 nM (125I)-rANP(126-150), BASM or BAE cells. From the text: Analogous "competitive displacement" receptor binding assays are considered commonplace in the art for examining specific ligand-receptor interactions.
Assuming these ANP analogs act at one or more ANP receptor sites, then increased receptor affinity should reflect increased biological potency.

The subject of the next assay is anesthetized rats. Kind of assay: Diuresis in anesthetized rats. The class given is in vivo, rat. The conditions noted are these: for urine flow rate (urine volume), diuretic response: versus baseline, FIG. 3. The protocol: In one set of examples, cannulae were placed in the left and right ureters and femoral vein of anesthetized rats and urine was collected from the ureters. Analog peptides were administered via the femoral vein. Prior to infusing the analog peptides, saline was infused for 30 minutes, urine was collected for 6 five-minute baseline periods and urine volume was determined gravimetrically. Following these baseline collection periods, various analog peptides were infused for 30 or 60 minutes and urine volume was measured in five-minute periods during infusion and for 60 minutes following infusion (at which time rats were returned to saline). Data was examined by averaging urine flow rates for six five-minute baseline control periods immediately preceding infusion, and comparing values during and after administration of peptides with the "baseline" control values. Responses to peptides are thus evaluated and plotted as the percent of baseline control responses. Specific examples are shown in FIGS. 3A-H. The error bars at the beginning of the graphs represent baseline values +standard deviations. Responses to peptides that are substantially above baseline ±SD can thus be interpreted as being statistically significant increases.

Where a SMILES comes first, the peptide text is derived from it. Bridges are numbered along the chain shown (N, C = ends). [ ]: non-standard residue; d: D form. The star is where a group is joined. Acetyl(2-naphthyloxy) = O=C(COc1ccc2ccccc2c1)*; Acetyl(2-naphthyl) = O=C(Cc1ccc2ccccc2c1)*; Cyclohexylacetyl = O=C(CC1CCCCC1)*; 2Naphthoyl = O=C(c1ccc2ccccc2c1)*; Phg = N[C@H](C(=O)O)c1ccccc1; Inp = O=C(O)C1CCNCC1; GABA = NCCCC(=O)O

Take `CC[C@H](C)[C@@H]1NC(=O)[C@H](CCCNC(=N)N)NC(=O)[C@H](CC(=O)O)NC(=O)[C@H]([C@@H](C)CC)NC(=O)[C@H](CCCNC(=N)N)NC(=O)CNC(=O)CNC(=O)[C@H](Cc2ccccc2)NC(=O)[C@@H](N)CSSC[C@@H](C(N)=O)NC(=O)[C@H](C)NC(=O)CNC1=O` [AP37, C-F-G-G-R-I-D-R-I-G-A-C-NH2] (H-CFGGRIDRIGAC-NH2; disulfide 1-12): the Ki in assay [1] (Table 2A, unit not given, in nM) is 13.40. Also, the “prevention of (125I)-rANP(126-150) binding to BASM cell-associated receptors (FIG. 2)” value in assay [1] is “effectively prevent”. The “urine flow rate (urine volume), diuretic response” value in the assay on anesthetized rats (infused at 10 mcg/min via femoral vein) is recorded as “significantly increased”.
Turning to `CC[C@H](C)[C@@H]1NC(=O)[C@H](CCCNC(=N)N)NC(=O)[C@H](CC(=O)O)NC(=O)[C@H]([C@@H](C)CC)NC(=O)[C@H](CCCNC(=N)N)NC(=O)[C@@H](NC(=O)[C@H](CO)NC(=O)[C@H](CO)NC(=O)[C@@H](N)CCCNC(=N)N)CSSC[C@@H](C(=O)N[C@@H](CC(N)=O)C(=O)N[C@@H](CO)C(=O)N[C@@H](Cc2ccccc2)C(=O)N[C@@H](CCCNC(=N)N)C(=O)N[C@@H](Cc2ccc(O)cc2)C(=O)O)NC(=O)CNC(=O)[C@H](CC(C)C)NC(=O)CNC(=O)[C@H](CO)NC(=O)[C@H](CCC(N)=O)NC(=O)[C@H](C)NC(=O)CNC1=O` [AP25, R--S--S--C--R--I--D--R--I--G--A--Q--S--G--L--G--C--N--S--F--R--Y] (H-RSSCRIDRIGAQSGLGCNSFRY-OH; disulfide 4-17), in assay [1], the “Ki(app)” value was 8.62 nM and the “prevention of (125I)-rANP(126-150) binding to BASM cell-associated receptors (FIG. 2)” value was “effectively prevent”. Moreover, the “urine flow rate (urine volume), diuretic response” value in the assay with anesthetized rats (infused at 5 mcg/min via femoral vein) is “significantly increased”.
Consider `CC[C@H](C)[C@@H]1NC(=O)[C@H](CCCNC(=N)N)NC(=O)[C@H](CC(=O)O)NC(=O)[C@H]([C@@H](C)CC)NC(=O)[C@@H](NC(=O)[C@H](CO)NC(=O)[C@H](CO)NC(=O)[C@@H](N)CCCNC(=N)N)CSSC[C@@H](C(=O)N[C@@H](CC(N)=O)C(=O)N[C@@H](CO)C(=O)N[C@@H](Cc2ccccc2)C(=O)N[C@@H](CCCNC(=N)N)C(=O)N[C@@H](Cc2ccc(O)cc2)C(=O)O)NC(=O)CNC(=O)[C@H](CC(C)C)NC(=O)CNC(=O)[C@H](CO)NC(=O)[C@H](CCC(N)=O)NC(=O)[C@H](C)NC(=O)CNC1=O` [AP54, R--S--S--C--I--D--R--I--G--A--Q--S--G--L--G--C--N--S--F--R--Y] (H-RSSCIDRIGAQSGLGCNSFRY-OH; disulfide 4-16), for which, in assay [1], the “receptor binding / activity as judged by Ki, in words” value is “does not bind to the receptor” and the “Ki(app)” value is on record as over 200 nM. For the same compound, the “in vivo diuretic/natriuretic activity in rats, in words” value in the assay on anesthetized rats (dose not stated) is “appears inactive in vivo”.
In the case of `CC[C@H](C)[C@H](NC(=O)[C@H](CCCNC(=N)N)NC(=O)[C@H](CC(=O)O)NC(=O)[C@@H](NC(=O)[C@H](C)NC(=O)CNC(=O)CNC(=O)Cc1ccc2ccccc2c1)[C@@H](C)CC)C(N)=O` [AP338, (2-NA)--G--G--A--I--D--R--I--NH2] ({Acetyl(2-naphthyl)}-GGAIDRI-NH2), the “Ki(app)” value in assay [1] amounted to 82.6 nM.
Same read-out and setting: under `CC[C@H](C)[C@H](NC(=O)[C@H](CCCNC(=N)N)NC(=O)[C@H](CC(=O)O)NC(=O)[C@@H](NC(=O)[C@H](CCCNC(=N)N)NC(=O)CNC(=O)[C@@H](CO)NC(=O)Cc1ccc2ccccc2c1)[C@@H](C)CC)C(N)=O` [AP330, (2-NA)--S^ --G--R--I--D--R--I--NH2] ({Acetyl(2-naphthyl)}-[dS]GRIDRI-NH2) stands 16.4 nM; under `CC[C@H](C)[C@H](NC(=O)[C@H](CCCNC(=N)N)NC(=O)CNC(=O)CNC(=O)Cc1ccc2ccccc2c1)C(=O)N[C@@H](CC(=O)O)C(=O)N[C@@H](CCCNC(=N)N)C(=O)N[C@H](C(N)=O)C(C)C` [AP333, (2-NA)--G--G--R--I--D--R--V--NH2] ({Acetyl(2-naphthyl)}-GGRIDRV-NH2), 106.4 nM; under `CC[C@H](C)[C@H](NC(=O)[C@H](CCCNC(=N)N)NC(=O)[C@H](CC(=O)O)NC(=O)[C@@H](NC(=O)[C@H](CCCNC(=N)N)NC(=O)CNC(=O)[C@@H](C)NC(=O)COc1ccc2ccccc2c1)[C@@H](C)CC)C(N)=O` [AP322, (2-NOA)--A^ --G--R--I--D--R--I--NH2] ({Acetyl(2-naphthyloxy)}-[dA]GRIDRI-NH2), over 100 nM.
The same measure, in the same setting: under `CC[C@H](C)[C@H](NC(=O)[C@H](CCCNC(=N)N)NC(=O)[C@H](CC(=O)O)NC(=O)[C@@H](NC(=O)[C@H](CCCNC(=N)N)NC(=O)CNC(=O)CNC(=O)CC1CCCCC1)[C@@H](C)CC)C(N)=O` [AP334, (CHA)--G--G--R--I--D--R--I--NH2] (Cyclohexylacetyl-GGRIDRI-NH2) stands 92.8 nM.
Regarding `CC[C@H](C)[C@H](NC(=O)[C@H](CCCNC(=N)N)NC(=O)CNC(=O)CNC(=O)Cc1ccc2ccccc2c1)C(=O)N[C@@H](CC(=O)O)C(=O)N[C@@H](CCCNC(=N)N)C(=O)N[C@H](C(N)=O)c1ccccc1` [AP595, (2-NA)--G--G-- R--I--D--R--Phg--NH2] ({Acetyl(2-naphthyl)}-GGRIDR[Phg]-NH2), in assay [1], the “Ki(app)” value turned out to be 100.0 nM.
On the same count and under the same terms, under `CC[C@H](C)[C@H](NC(=O)[C@H](CCCNC(=N)N)NC(=O)[C@H](CC(=O)O)NC(=O)[C@@H](NC(=O)[C@H](CCCNC(=N)N)NC(=O)CNC(=O)CNC(=O)COc1ccc2ccccc2c1)[C@@H](C)CC)C(=O)NCC(=O)N[C@@H](C)C(N)=O` [AP318, (2-NOA)--G--G--R--I--D--R--I--G--A--NH2] ({Acetyl(2-naphthyloxy)}-GGRIDRIGA-NH2) stands 8.7 nM; under `CC[C@H](C)[C@H](NC(=O)[C@H](CCCNC(=N)N)NC(=O)[C@H](CC(=O)O)NC(=O)[C@@H](NC(=O)[C@H](CCCNC(=N)N)NC(=O)C1CCN(C(=O)c2ccc3ccccc3c2)CC1)[C@@H](C)CC)C(N)=O` [AP562] ({2Naphthoyl-Inp}-RIDRI-NH2), 22.4 nM.
Still for that read-out and setting: under `CC[C@H](C)[C@H](NC(=O)[C@H](CCCNC(=N)N)NC(=O)[C@H](CC(=O)O)NC(=O)[C@@H](NC(=O)[C@H](CCCNC(=N)N)NC(=O)CCCNC(=O)Cc1ccc2ccccc2c1)[C@@H](C)CC)C(N)=O` [AP327, (2-NA)--NH(CH2)3 CO--R--I-- D--R--I--NH2] ({Acetyl(2-naphthyl)-GABA}-RIDRI-NH2) stands 184 nM.
The same measure, in the same setting: to `CC[C@H](C)CNC(=O)[C@H](CCCNC(=N)N)NC(=O)[C@H](CC(=O)O)NC(=O)[C@@H](NC(=O)[C@H](CCCNC(=N)N)NCC1CCN(C(=O)COc2ccc3ccccc3c2)CC1)[C@@H](C)CC` [AP812] belongs 32.0 nM.

The values are drawn from patent publication US5047397A, “Linear analogs of atrial natriuretic peptides” (California Biotechnology Inc., priority 1988, dated 1991).
